Laboratory results reported in the NIST ThermoML archive (doi:10.1021/je700260f).

Conditions: 313.15 K, Liquid, Vibrating tube method

FC(C(F)(F)F)C(F)(F)F [1,1,1,2,3,3,3-heptafluoropropane]
Conditions | mass density [kg/m3]
20571 kPa | 1453
20603 kPa | 1453
20639 kPa | 1453.2
20675 kPa | 1453.5
20721 kPa | 1453.6
20757 kPa | 1453.8
20799 kPa | 1454.1
20826 kPa | 1454.2
20865 kPa | 1454.4
20902 kPa | 1454.4
20933 kPa | 1454.7
20969 kPa | 1454.7
21003 kPa | 1454.9
21049 kPa | 1455
21080 kPa | 1455.2
21213 kPa | 1455.8
21240 kPa | 1455.9
21275 kPa | 1456
21319 kPa | 1456.3
21355 kPa | 1456.5
21405 kPa | 1456.7
21435 kPa | 1456.8
21466 kPa | 1456.9
21512 kPa | 1457.1
21547 kPa | 1457.2
21593 kPa | 1457.5
21628 kPa | 1457.6
21665 kPa | 1457.8
21700 kPa | 1457.8
21742 kPa | 1458
21776 kPa | 1458.2
21813 kPa | 1458.3
21844 kPa | 1458.5
21885 kPa | 1458.7
21927 kPa | 1458.9
21953 kPa | 1459
21990 kPa | 1459.2
22027 kPa | 1459.2
22064 kPa | 1459.5
22100 kPa | 1459.6
22131 kPa | 1459.8
22172 kPa | 1459.9
22203 kPa | 1460.1
22245 kPa | 1460.1
22276 kPa | 1460.2
22312 kPa | 1460.6
22349 kPa | 1460.5
22385 kPa | 1460.8
22411 kPa | 1460.8
22447 kPa | 1461
22489 kPa | 1461.3
22532 kPa | 1461.4
22579 kPa | 1461.6
22611 kPa | 1461.7
22653 kPa | 1461.9
22684 kPa | 1462.2
22722 kPa | 1462.2
22758 kPa | 1462.5
22796 kPa | 1462.5
22828 kPa | 1462.7
22876 kPa | 1462.9
22922 kPa | 1463.1
22954 kPa | 1463.3
22986 kPa | 1463.2
23028 kPa | 1463.7
23054 kPa | 1463.7
23096 kPa | 1463.7
23132 kPa | 1464
23180 kPa | 1464.2
23217 kPa | 1464.3
23384 kPa | 1465
23422 kPa | 1465.2
23463 kPa | 1465.3
23511 kPa | 1465.4
23548 kPa | 1465.7
23585 kPa | 1465.8
23623 kPa | 1466
23672 kPa | 1466.2
23710 kPa | 1466.2
23760 kPa | 1466.5
23805 kPa | 1466.6
23840 kPa | 1466.9
23893 kPa | 1467
23939 kPa | 1467.2
23980 kPa | 1467.2
24015 kPa | 1467.5
24073 kPa | 1467.7
24121 kPa | 1467.8
24163 kPa | 1468.1
24204 kPa | 1468.4
24258 kPa | 1468.6
24299 kPa | 1468.7
24341 kPa | 1468.9
24400 kPa | 1469.2
24441 kPa | 1469.3
24471 kPa | 1469.4
24517 kPa | 1469.5
24552 kPa | 1469.6
24586 kPa | 1469.7
24643 kPa | 1470
24690 kPa | 1470.3
24731 kPa | 1470.4
24772 kPa | 1470.6
24813 kPa | 1470.8
24848 kPa | 1470.8
24899 kPa | 1471.1
24951 kPa | 1471.3
24991 kPa | 1471.5
25031 kPa | 1471.7
25225 kPa | 1472.4
25266 kPa | 1472.5
25303 kPa | 1472.6
25346 kPa | 1472.9
25382 kPa | 1473
25428 kPa | 1473.2
25464 kPa | 1473.3
27024 kPa | 1479.1
27078 kPa | 1479.5
27113 kPa | 1479.5
27168 kPa | 1479.8
27215 kPa | 1479.9
27250 kPa | 1480.2
27333 kPa | 1480.4
27378 kPa | 1480.4
27415 kPa | 1480.8
27452 kPa | 1480.9
27512 kPa | 1481.1
27562 kPa | 1481.4
27616 kPa | 1481.6
27789 kPa | 1482.1
27894 kPa | 1482.6
27923 kPa | 1482.7
27959 kPa | 1482.7
27997 kPa | 1482.8
28031 kPa | 1483
28065 kPa | 1483.1
28094 kPa | 1483.2
28137 kPa | 1483.5
28166 kPa | 1483.6
28213 kPa | 1483.6
28253 kPa | 1483.8
28282 kPa | 1484
28311 kPa | 1484
28349 kPa | 1484.3
28389 kPa | 1484.3
28424 kPa | 1484.5
28465 kPa | 1484.6
28499 kPa | 1484.8
28538 kPa | 1484.9
28567 kPa | 1485
28613 kPa | 1485.2
28643 kPa | 1485.2
28674 kPa | 1485.3
28717 kPa | 1485.6
28761 kPa | 1485.7
29100 kPa | 1487
29135 kPa | 1487
29166 kPa | 1487.2
29208 kPa | 1487.3
29239 kPa | 1487.5
29269 kPa | 1487.5
29305 kPa | 1487.6
29341 kPa | 1487.9
29381 kPa | 1487.9
29416 kPa | 1488
29450 kPa | 1488.1
29496 kPa | 1488.3
29525 kPa | 1488.6
29570 kPa | 1488.6
29610 kPa | 1488.7
31429 kPa | 1495.1
31477 kPa | 1495.4
31513 kPa | 1495.4
31554 kPa | 1495.6
31782 kPa | 1496.5
31819 kPa | 1496.4
31856 kPa | 1496.6
31894 kPa | 1496.7
31931 kPa | 1496.9
31964 kPa | 1497
32008 kPa | 1497.3
32040 kPa | 1497.3
32094 kPa | 1497.4
32170 kPa | 1497.7
32235 kPa | 1497.9
32288 kPa | 1498.1
32326 kPa | 1498.2
32700 kPa | 1499.5
33062 kPa | 1500.7
33127 kPa | 1500.8
33176 kPa | 1501.1
33220 kPa | 1501.2
33258 kPa | 1501.4
33290 kPa | 1501.5
33332 kPa | 1501.7
33375 kPa | 1501.7
33408 kPa | 1501.8
33462 kPa | 1501.9
33502 kPa | 1502.1
33551 kPa | 1502.5
33585 kPa | 1502.3
33640 kPa | 1502.6
33684 kPa | 1502.6
33729 kPa | 1502.8
33763 kPa | 1503
33807 kPa | 1503.2
